Source: patent publication US11186576B2, “Pyrazolo[1,5-A][1,3,5]triazine and pyrazolo[1,5-A]pyrimidine derivatives as CDK inhibitors” (Aurigene Discovery Technologies Limited, priority 2015, dated 2021)
Where two headings read alike, the source gives them in different places.

Molecular target: CDK7/CycH/MNAT1 (Homo sapiens (Human), UniProt P50613)
Assay: Biochemical assay for CDK7 (TR-FRET kinase assay)
Settings: for inhibition at 10 µM: read-out: % inhibition @ 10 μM
Outline: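 CDK7/CycH/MNAT1 (5 nM) was preincubated with compound for 60 min at room temperature, then reacted for 60 min with 100 nM ULight-MBP and 1 mM ATP in 1% DMSO. Irreversibility was probed with 20, 60 and 180 min preincubations.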

[1] = 10 μM compound, 60 min pre-incubation, 1 mM ATP
[2] = 60 min pre-incubation, 1 mM ATP, read-out: IC50

Chain of CDK7/CycH/MNAT1 (P50613 whole entry): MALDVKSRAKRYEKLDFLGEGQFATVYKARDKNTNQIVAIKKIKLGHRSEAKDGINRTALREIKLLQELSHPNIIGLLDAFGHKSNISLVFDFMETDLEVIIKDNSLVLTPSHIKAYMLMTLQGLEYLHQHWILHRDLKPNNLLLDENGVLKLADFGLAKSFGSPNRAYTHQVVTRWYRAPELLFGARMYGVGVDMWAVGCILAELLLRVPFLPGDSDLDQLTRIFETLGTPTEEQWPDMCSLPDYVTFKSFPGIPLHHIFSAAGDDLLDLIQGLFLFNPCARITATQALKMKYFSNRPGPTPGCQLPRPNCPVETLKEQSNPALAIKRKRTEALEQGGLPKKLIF
Chain of CDK7/CycH/MNAT1 (P51946 whole entry partner): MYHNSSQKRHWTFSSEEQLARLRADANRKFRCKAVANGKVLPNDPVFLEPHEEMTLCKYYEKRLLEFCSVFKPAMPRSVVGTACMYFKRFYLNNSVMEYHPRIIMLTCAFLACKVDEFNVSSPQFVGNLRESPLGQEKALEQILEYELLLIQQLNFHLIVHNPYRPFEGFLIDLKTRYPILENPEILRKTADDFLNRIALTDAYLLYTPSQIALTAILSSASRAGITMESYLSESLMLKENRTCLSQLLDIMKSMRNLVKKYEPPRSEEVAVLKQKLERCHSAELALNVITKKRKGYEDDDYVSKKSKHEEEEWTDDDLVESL
Chain of CDK7/CycH/MNAT1 (P51948 whole entry partner): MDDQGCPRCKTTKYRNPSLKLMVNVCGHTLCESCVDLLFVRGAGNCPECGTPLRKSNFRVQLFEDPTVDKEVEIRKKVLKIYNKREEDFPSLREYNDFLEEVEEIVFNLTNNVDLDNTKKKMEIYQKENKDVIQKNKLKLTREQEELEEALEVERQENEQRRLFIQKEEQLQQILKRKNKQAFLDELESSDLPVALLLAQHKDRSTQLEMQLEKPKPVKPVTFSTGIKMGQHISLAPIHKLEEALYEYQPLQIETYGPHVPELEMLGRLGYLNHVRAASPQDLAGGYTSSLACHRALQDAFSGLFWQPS

Row | Structure (SMILES) | inhibition at 10 µM [1] [%] | IC50 [2] [µM] | % inhibition @ 10 μM [1] [%] | IC50 (IC50, 60 min pre-incubation, 1 mM ATP) [µM] | inhibition at 10 µM [%]
1 | C=CC(=O)NCC(=O)Nc1cccc(CNc2nc(NC3CCOCC3)nc3c(C(C)C)cnn23)c1 [Compound 79, N-(2-((3-(((8-isopropyl-2-((tetrahydro-2H-pyran-4-yl)amino)pyrazolo[1,5-a][1,3,5]triazin-4-yl)amino)methyl)phenyl)amino)-2-oxoethyl)acrylamide] | 96 | < 0.3 | – | – | –
2 | C=CC(=O)NC(C)(C)C(=O)Nc1cccc(CNc2nc(NC3CCOCC3)nc3c(C(C)C)cnn23)c1 [Compound 82, N-(1-((3-(((8-isopropyl-2-((tetrahydro-2H-pyran-4-yl)amino)pyrazolo[1,5-a][1,3,5]triazin-4-yl)amino)methyl)phenyl)amino)-2-methyl-1-oxopropan-2-yl)acrylamide] | 93 | 0.3 to 1 | – | – | –
3 | C=CC(=O)N[C@H]1CC[C@@H](C(=O)Nc2cccc(CNc3nc(OC4CCOC4)nc4c(C(C)C)cnn34)c2)CC1 (stereo partly drawn) [Compound 100, (1,4-cis)-4-acrylamido-N-(3-(((8-isopropyl-2-((tetrahydrofuran-3-yl)oxy)pyrazolo[1,5-a][1,3,5]triazin-4-yl)amino)methyl)phenyl)cyclohexane-1-carboxamide] | 82 | 0.3 to 1 | – | – | –
4 | C=CC(=O)N1CCC(C(=O)Nc2cccc(CNc3nc(OCC(C)C)nc4c(C(C)C)cnn34)c2)C1 (stereo not shown) [Compound 102, 1-acryloyl-N-(3-(((2-isobutoxy-8-isopropylpyrazolo[1,5-a][1,3,5]triazin-4-yl)amino)methyl)phenyl)pyrrolidine-3-carboxamide] | 82 | 0.3 to 1 | – | – | –
5 | C=CC(=O)N1CCC(C(=O)Nc2cccc(CNc3nc(OCCOC)nc4c(C(C)C)cnn34)c2)C1 (stereo not shown) [Compound 103, 1-acryloyl-N-(3-(((8-isopropyl-2-(2-methoxyethoxy)pyrazolo[1,5-a][1,3,5]triazin-4-yl)amino)methyl)phenyl)pyrrolidine-3-carboxamide] | 80 | > 1 | – | – | –
6 | C=CC(=O)N1CCC(C(=O)Nc2cccc(CNc3nc(OCCOCCOC)nc4c(C(C)C)cnn34)c2)C1 (stereo not shown) [Compound 104, 1-acryloyl-N-(3-(((8-isopropyl-2-(2-(2-methoxyethoxy)ethoxy)pyrazolo[1,5-a][1,3,5]triazin-4-yl)amino)methyl)phenyl)pyrrolidine-3-carboxamide] | 78 | > 1 | – | – | –
7 | C=CC(=O)N1CCOCC1C(=O)Nc1cccc(CNc2nc(OC3CCN(C)CC3)nc3c(C(C)C)cnn23)c1 (stereo not shown) [Compound 113, 4-acryloyl-N-(3-(((8-isopropyl-2-((1-methylpiperidin-4-yl)oxy)pyrazolo[1,5-a][1,3,5]triazin-4-yl)amino)methyl)phenyl)morpholine-3-carboxamide] | – | < 0.3 | – | – | –
8 | C=CC(=O)N1CCN(C(=O)Oc2cccc(CNc3nc(OC4CCN(C)CC4)nc4c(C(C)C)cnn34)c2)CC1 [Compound 121, 3-(((8-isopropyl-2-((1-methylpiperidin-4-yl)oxy)pyrazolo[1,5-a][1,3,5]triazin-4-yl)amino)methyl)phenyl 4-acryloylpiperazine-1-carboxylate] | – | – | – | < 0.3 | 93
9 | CC(C)c1cnn2c(Nc3cccc(NC(=O)c4ccc(NC(=O)/C=C/CN(C)C)cc4)c3)nc(OC3CCN(C)CC3)nc12 [Compound 130, (E)-4-(4-(dimethylamino)but-2-enamido)-N-(3-((8-isopropyl-2-((1-methylpiperidin-4-yl)oxy)pyrazolo[1,5-a][1,3,5]triazin-4-yl)amino)phenyl)benzamide] | – | < 0.3 | – | – | 97
10 | CC(C)c1cnn2c(Nc3cccc(C(=O)NC4CCCN(C(=O)/C=C/CN(C)C)C4)c3)nc(OC3CCN(C)CC3)nc12 (stereo not shown) [Compound 133, (E)-N-(1-(4-(dimethylamino)but-2-enoyl)piperidin-3-yl)-3-((8-isopropyl-2-((1-methylpiperidin-4-yl)oxy)pyrazolo[1,5-a][1,3,5]triazin-4-yl)amino)benzamide] | 97 | < 0.3 | – | – | –

Now from value to molecule, other results behind:

Row | inhibition at 10 µM [1] [%] | IC50 [2] [µM] | % inhibition @ 10 μM [1] [%] | Structure (SMILES) | IC50 (IC50, 60 min pre-incubation, 1 mM ATP) [µM] | inhibition at 10 µM [%]
11 | 94 | 0.3 to 1 | – | C=CC(=O)NC(C)C(=O)Nc1cccc(CNc2nc(NC3CCOCC3)nc3c(C(C)C)cnn23)c1 (stereo not shown) [Compound 80, N-(1-((3-(((8-isopropyl-2-((tetrahydro-2H-pyran-4-yl)amino)pyrazolo[1,5-a][1,3,5]triazin-4-yl)amino)methyl)phenyl)amino)-1-oxopropan-2-yl)acrylamide] | – | –
12 | 98 | < 0.3 | – | C=CC(=O)N(C)CC(=O)Nc1cccc(CNc2nc(NC3CCOCC3)nc3c(C(C)C)cnn23)c1 [Compound 81, N-(2-((3-(((8-isopropyl-2-((tetrahydro-2H-pyran-4-yl)amino)pyrazolo[1,5-a][1,3,5]triazin-4-yl)amino)methyl)phenyl)amino)-2-oxoethyl)-N-methylacrylamide] | – | –
13 | 97 | < 0.3 | – | C=CC(=O)N(C)C1(C(=O)Nc2cccc(CNc3nc(NC4CCOCC4)nc4c(C(C)C)cnn34)c2)CC1 [Compound 84, N-(3-(((8-isopropyl-2-((tetrahydro-2H-pyran-4-yl)amino)pyrazolo[1,5-a][1,3,5]triazin-4-yl)amino)methyl)phenyl)-1-(N-methylacrylamido)cyclopropane-1-carboxamide] | – | –
14 | 99 | < 0.3 | – | C=CC(=O)N1CCC1C(=O)Nc1cccc(Nc2nc(NC3CCOCC3)nc3c(C(C)C)cnn23)c1 (stereo not shown) [Compound 86, 1-acryloyl-N-(3-((8-isopropyl-2-((tetrahydro-2H-pyran-4-yl)amino)pyrazolo[1,5-a][1,3,5]triazin-4-yl)amino)phenyl)azetidine-2-carboxamide] | – | –
15 | – | – | 32 | C=CC(=O)N[C@H]1CC[C@@H](C(=O)Nc2cccc(Nc3nc(NC4CCOCC4)nc4c(C(C)C)cnn34)c2)CC1 [Compound 87, (1,4-cis)-4-acrylamido-N-(3-((8-isopropyl-2-((tetrahydro-2H-pyran-4-yl)amino)pyrazolo[1,5-a][1,3,5]triazin-4-yl)amino)phenyl)cyclohexane-1-carboxamide] | – | –
16 | 38 | – | – | C=CC(=O)N1CCCC(C(=O)Nc2cccc(CNc3nc(OC4CCN(C)CC4)nc4ccnn34)c2)C1 (stereo not shown) [Compound 89, 1-acryloyl-N-(3-(((2-((1-methylpiperidin-4-yl)oxy)pyrazolo[1,5-a][1,3,5]triazin-4-yl)amino)methyl)phenyl)piperidine-3-carboxamide] | – | –
17 | 99 | < 0.3 | – | C=CC(=O)N1CCOC(C(=O)Nc2cccc(CNc3nc(OC4CCN(C)CC4)nc4c(C(C)C)cnn34)c2)C1 (stereo not shown) [Compound 112, 4-acryloyl-N-(3-(((8-isopropyl-2-((1-methylpiperidin-4-yl)oxy)pyrazolo[1,5-a][1,3,5]triazin-4-yl)amino)methyl)phenyl)morpholine-2-carboxamide] | – | –
18 | 93 | 0.3 to 1 | – | C=CC(=O)N[C@H]1CC[C@@H](C(=O)Nc2cc(CNc3nc(OC4CCN(C)CC4)nc4c(C(C)C)cnn34)ccc2F)CC1 [Compound 118, (1,4-cis)-4-acrylamido-N-(2-fluoro-5-(((8-isopropyl-2-((1-methylpiperidin-4-yl)oxy)pyrazolo[1,5-a][1,3,5]triazin-4-yl)amino)methyl)phenyl)cyclohexane-1-carboxamide] | – | –
19 | 93 | < 0.3 | – | C=CC(=O)N1CCCC(C(=O)Nc2ccc(CNc3nc(OC4CCN(C)CC4)nc4c(C(C)C)cnn34)c[n+]2[O-])C1 (stereo not shown) [Compound 120, 2-(1-acryloylpiperidine-3-carboxamido)-5-(((8-isopropyl-2-((1-methylpiperidin-4-yl)oxy)pyrazolo[1,5-a][1,3,5]triazin-4-yl)amino)methyl)pyridine 1-oxide] | – | –
20 | 96 | < 0.3 | – | CC(C)c1cnn2c(NCc3ccc(F)c(NC(=O)C4CCCN(C(=O)/C=C/CN(C)C)C4)c3)nc(OC3CCN(C)CC3)nc12 (stereo not shown) [Compound 123, (E)-1-(4-(dimethylamino)but-2-enoyl)-N-(2-fluoro-5-(((8-isopropyl-2-((1-methylpiperidin-4-yl)oxy)pyrazolo[1,5-a][1,3,5]triazin-4-yl)amino)methyl)phenyl)piperidine-3-carboxamide] | – | –
21 | 80 | – | – | C=CC(=O)NC1CCC(C(=O)Nc2cccc(Nc3nc(OC4CCN(C)CC4)nc4c(C(C)C)cnn34)c2)CC1 (stereo not drawn) [Compound 126, (1,4-cis)-4-acrylamido-N-(3-((8-isopropyl-2-((1-methylpiperidin-4-yl)oxy)pyrazolo[1,5-a][1,3,5]triazin-4-yl)amino)phenyl)cyclohexane-1-carboxamide] | – | –
22 | – | > 1 | – | C=CC(=O)N[C@H]1CC[C@@H](C(=O)Nc2cccc(Nc3nc(OC4CCN(C)CC4)nc4c(C(C)C)cnn34)c2)CC1 [Compound 126, (1,4-cis)-4-acrylamido-N-(3-((8-isopropyl-2-((1-methylpiperidin-4-yl)oxy)pyrazolo[1,5-a][1,3,5]triazin-4-yl)amino)phenyl)cyclohexane-1-carboxamide] | – | –
23 | 95 | < 0.3 | – | C=CC(=O)N1CCC(C(=O)Nc2cccc(Nc3nc(OC4CCN(C)CC4)nc4c(C(C)C)cnn34)c2)CC1 [Compound 127, 1-acryloyl-N-(3-((8-isopropyl-2-((1-methylpiperidin-4-yl)oxy)pyrazolo[1,5-a][1,3,5]triazin-4-yl)amino)phenyl)piperidine-4-carboxamide] | – | –
24 | 97 | < 0.3 | – | CC(C)c1cnn2c(NCc3cccc(NC(=O)[C@H]4CC[C@@H](NC/C=C/C(=O)N(C)C)CC4)c3)nc(OC3CCN(C)CC3)nc12 [Compound 135, (1s,4s)-4-(((E)-4-(dimethylamino)-4-oxobut-2-en-1-yl)amino)-N-(3-(((8-isopropyl-2-((1-methylpiperidin-4-yl)oxy)pyrazolo[1,5-a][1,3,5]triazin-4-yl)amino)methyl)phenyl)cyclohexane-1-carboxamide] | – | –
